PubChem BioAssay (NCI)
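96-well plates; 48 h exposure; 5 concentrations. Endpoints by linear interpolation between flanking doses. Not reached: highest tested concentration assigned. TGI: total growth inhibition.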

Tests used:
Assay in all cases: DTP human tumour cell line panel, 48 h
M14 melanoma = tested on: M14 melanoma
KM20L2 colon = tested on: KM20L2 colon
TK-10 renal = tested on: TK-10 renal
NCI-H226 lung = tested on: NCI-H226 lung
SF-539 CNS = tested on: SF-539 CNS
HOP-62 NSCLC = tested on: HOP-62 NSCLC
SN12C renal = tested on: SN12C renal
SF-268 CNS = tested on: SF-268 CNS
UACC-62 melanoma = tested on: UACC-62 melanoma
HT29 colon = tested on: HT29 colon
RXF 393 renal = tested on: RXF 393 renal
NCI-H460 lung = tested on: NCI-H460 lung
SR leukemia = tested on: SR leukemia
CCRF-CEM leukemia = tested on: CCRF-CEM leukemia
HCT-15 colon = tested on: HCT-15 colon
UACC-257 melanoma = tested on: UACC-257 melanoma
SK-OV-3 ovarian = tested on: SK-OV-3 ovarian
786-0 renal = tested on: 786-0 renal
DLD-1 colon = tested on: DLD-1 colon
DMS 273 small cell lung = tested on: DMS 273 small cell lung
EKVX NSCLC = tested on: EKVX NSCLC
NCI-H522 lung = tested on: NCI-H522 lung
LXFL 529 NSCLC = tested on: LXFL 529 NSCLC
ACHN renal = tested on: ACHN renal
OVCAR-8 ovarian = tested on: OVCAR-8 ovarian
KM12 colon = tested on: KM12 colon
A498 renal = tested on: A498 renal
SW-620 colon = tested on: SW-620 colon
MALME-3M melanoma = tested on: MALME-3M melanoma
LOX IMVI melanoma = tested on: LOX IMVI melanoma
OVCAR-5 ovarian = tested on: OVCAR-5 ovarian
DMS 114 small cell lung = tested on: DMS 114 small cell lung
COLO 205 colon = tested on: COLO 205 colon
NCI-H23 lung = tested on: NCI-H23 lung
M19-MEL melanoma = tested on: M19-MEL melanoma
HCT-116 colon = tested on: HCT-116 colon
OVCAR-3 ovarian = tested on: OVCAR-3 ovarian
UO-31 renal = tested on: UO-31 renal
SK-MEL-28 melanoma = tested on: SK-MEL-28 melanoma
MOLT-4 leukemia = tested on: MOLT-4 leukemia
XF 498 CNS = tested on: XF 498 CNS
OVCAR-4 ovarian = tested on: OVCAR-4 ovarian
A549 NSCLC = tested on: A549 NSCLC
SK-MEL-2 melanoma = tested on: SK-MEL-2 melanoma
SNB-75 CNS = tested on: SNB-75 CNS
SNB-78 CNS = tested on: SNB-78 CNS
HCC-2998 colon = tested on: HCC-2998 colon
HL-60(TB) leukemia = tested on: HL-60(TB) leukemia
IGROV1 ovarian = tested on: IGROV1 ovarian
SNB-19 CNS = tested on: SNB-19 CNS
K-562 leukemia = tested on: K-562 leukemia
CAKI-1 renal = tested on: CAKI-1 renal
HOP-18 NSCLC = tested on: HOP-18 NSCLC
SK-MEL-5 melanoma = tested on: SK-MEL-5 melanoma
U251 CNS = tested on: U251 CNS
SF-295 CNS = tested on: SF-295 CNS
NCI/ADR-RES ovarian = tested on: NCI/ADR-RES ovarian
PC-3 prostate = tested on: PC-3 prostate
MDA-MB-231 breast = tested on: MDA-MB-231 breast
MCF7 breast = tested on: MCF7 breast
T-47D breast = tested on: T-47D breast
MDA-MB-435 = tested on: MDA-MB-435
MDA-N = tested on: MDA-N
DU-145 prostate = tested on: DU-145 prostate
HOP-92 NSCLC = tested on: HOP-92 NSCLC
HS 578T breast = tested on: HS 578T breast
RPMI-8226 leukemia = tested on: RPMI-8226 leukemia
BT-549 breast = tested on: BT-549 breast

Measured: TGI

CC1(C)CC(=O)C(CC2C(=O)CCCC2=O)C(=O)C1
not listed: NCI/ADR-RES ovarian | PC-3 prostate | MDA-MB-231 breast | MCF7 breast | T-47D breast | MDA-MB-435 | MDA-N | DU-145 prostate | HOP-92 NSCLC | HS 578T breast | RPMI-8226 leukemia | BT-549 breast
> 100 µM: all other assays above

COC(=O)NC(Cc1ccccc1)NC(=O)OC(C)(C)C (stereo not given)
not listed: KM20L2 colon | DLD-1 colon | DMS 273 small cell lung | LXFL 529 NSCLC | DMS 114 small cell lung | M19-MEL melanoma | XF 498 CNS | SNB-78 CNS | HOP-18 NSCLC
> 100 µM: all other assays above
